Experimental findings from paper PMC10518717, “High-Throughput Screening and Proteomic Characterization of Compounds Targeting Myeloid-Derived Suppressor Cells” (Molecular & Cellular Proteomics : MCP, 2023) are described below.

The experiment deals with T1, NUP-MDSC cell lysate (Mus musculus, UniProt O70589).
T1 construct: endogenous in cells; host or cells: mouse NUP-MDSC (lysate)
T1 sequence (O70589 1-926): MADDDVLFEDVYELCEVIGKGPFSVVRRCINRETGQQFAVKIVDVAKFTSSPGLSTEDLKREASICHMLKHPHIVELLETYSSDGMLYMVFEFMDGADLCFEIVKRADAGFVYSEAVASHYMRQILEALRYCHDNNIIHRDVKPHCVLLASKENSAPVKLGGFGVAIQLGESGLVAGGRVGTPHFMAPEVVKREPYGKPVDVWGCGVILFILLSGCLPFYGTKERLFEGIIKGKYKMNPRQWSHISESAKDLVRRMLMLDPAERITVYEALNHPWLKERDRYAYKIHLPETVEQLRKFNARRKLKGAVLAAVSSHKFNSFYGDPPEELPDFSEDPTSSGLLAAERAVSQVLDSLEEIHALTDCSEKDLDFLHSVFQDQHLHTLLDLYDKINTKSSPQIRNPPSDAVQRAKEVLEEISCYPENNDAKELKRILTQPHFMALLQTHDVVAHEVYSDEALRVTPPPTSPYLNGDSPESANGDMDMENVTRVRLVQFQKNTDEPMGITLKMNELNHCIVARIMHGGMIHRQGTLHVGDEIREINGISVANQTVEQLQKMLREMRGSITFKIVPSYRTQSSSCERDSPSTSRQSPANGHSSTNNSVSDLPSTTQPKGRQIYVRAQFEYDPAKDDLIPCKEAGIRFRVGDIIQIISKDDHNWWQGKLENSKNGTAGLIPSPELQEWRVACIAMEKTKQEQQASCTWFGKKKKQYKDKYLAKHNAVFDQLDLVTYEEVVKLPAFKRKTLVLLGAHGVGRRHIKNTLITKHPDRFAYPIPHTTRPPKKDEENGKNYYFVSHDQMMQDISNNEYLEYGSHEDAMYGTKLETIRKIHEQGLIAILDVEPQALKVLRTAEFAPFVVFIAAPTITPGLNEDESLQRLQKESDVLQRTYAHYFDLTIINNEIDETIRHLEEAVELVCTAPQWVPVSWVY
As to the kind of experiment: Solvent-induced protein precipitation profiling, proteome-wide. Type of experiment: binding. Conditions: protein Cask; soluble fraction; 26 uM. As for the experimental part:
NUP-MDSCs were differentiated as described above, washed twice with PBS, resuspended in lysis buffer (PBS, 0.4% IGEPAL CA-630, 1× Halt Protease-Inhibitor Cocktail (Thermo Fisher Scientific)), and subjected to three freeze-thaw cycles. The lysate was cleared by centrifugation for 30 min at 18,000g and 4 °C. The soluble fraction was diluted to 4 mg/ml and allowed to warm up to room temperature. Equal volumes of lysate were treated in triplicates with 100 x compound stock solutions (in DMSO) or DMSO for 15 min at room temperature (final concentrations: cmpd 2: 7.8 μM (3xEC50) and 26 μM (10xEC50), cmpd 3: 10 μM and 26 μM). Similar to a previous study ([46]), each sample was divided into eight aliquots to be denatured using different concentrations (8%, 10%, 12%, 14%, 16%, 18%, 20%, 22%) of acetone:ethanol:acetic acid (50:50:0.1) in water for 20 min at 37 °C with vigorous shaking. Aggregated proteins were separated by centrifugation for 45 min at 4 °C and 3900g. Next, equal amounts of the soluble fraction were pooled for subsequent proteomic analysis.
Methanol was added to 100 μg of the pooled supernatants to a final concentration of 70% and further processed according to the R2P1 protocol ([47]), with tryptic digestion performed in 50 mM Hepes (pH 8.5). Elution fractions were combined and dried by vacuum centrifugation. Dried samples were resuspended in deionized water, and TMT labeling was performed according to Zecha et al. ([35]). All 15 samples (5 treatment conditions in triplicates) were labeled with one TMTpro plex. Next, equal amounts were pooled and desalted by C18 solid-phase extraction cartridges (Sep-Pak Vac 1 cc C18 Cartridges, Waters Corp). Desalted peptides were chromatographically separated via basic reversed phase chromatography as previously described ([36]) into 24 fractions, dried down, and stored at −20 °C until further analysis.
Peptides were analyzed via LC-MS/MS on a Vanquish Neo UHPLC coupled to an Orbitrap Eclipse Tribrid mass spectrometer (Thermo Fisher Scientific). […] The mass spectrometer was operated in data-dependent mode and positive ionization mode. Samples were measured, employing a MS3 method with real-time search. […] Iontrap-MS2 spectra for peptide identification were acquired using HCD fragmentation with 35% NCE, an isolation window of 0.7 m/z, an AGC target value of 5e4 charges, and a maxIT of 35 ms. To obtain quantitative information on TMT reporter ions, each peptide precursor was fragmented again as for MS2 analysis followed by synchronous selection of the up to 10 most intense peptide fragments in the iontrap ([37]) and further fragmentation via HCD using an NCE of 55%. For the MS3 scan, real-time search was enabled to only trigger a MS3 scan for peptides that are TMT-labeled and can be identified (searched against a mouse database, same as used for maxquant processing). The MS3 scan was recorded in the OT at 30,000 resolution (scan range 110–500 m/z, isolation window of 0.7 m/z, AGC of 2e4 charges, maxIT of 120 ms). The cycle time was set to 3 s, and the dynamic exclusion lasted for 60 s.
Raw files were searched with Maxquant (v. 2.0.3.0) against the mouse reference proteome (UP000000589, canonical, download 10/2019, 55,029 entries) with standard settings for reporter ion MS3 unless described otherwise ([39]). Isotope impurities of the TMT lot were specified to allow MaxQuant the automated correction of TMT intensities. […] Trypsin/P was specified as the proteolytic enzyme with up to two missed cleavage sites allowed. […]

The structures appear in SMILES notation.

Take `CCOC(=O)c1nnn(-c2nn3nnnc3c3ccccc23)c1C` [compound 2]: the “log2 FC cmpd2_26uM/cmpd3_26uM” value is 0.23.
